What was measured:
Set-up in all cases: scale not given here
[1] = test system: CHEAL Lambsquarters, Common; assay: Postemergence herbicidal evaluation, CHEAL; assay type: in vivo, Chenopodium album, L.; details: postemergence spray, rated about two-three weeks after treatment
Method in brief: (§1)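 Ratings from greenhouse plants scored about two to three weeks after a foliar spray; data from multiple tests averaged. Seedlings about two weeks old received roughly 0.006–0.400 kg/ha active compound in 80/20 acetone/water with 1.0% methylated seed oil.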

ABUTH Velvetleaf [2] = assay: Preemergence herbicidal evaluation, ABUTH; assay type: in vivo, Abutilon theophrasti, Medic.; details: preemergence
Method in brief: (§2)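 First, seed is blended with potting soil and sown over roughly an inch of soil per cup. Next, the surface is sprayed with an aqueous acetone solution delivering about 0.013–0.800 kg/ha. Finally, cups are grown in the greenhouse and rated after 4–5 weeks.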

CASOB Sicklepod [3] = assay: Postemergence herbicidal evaluation, CASOB; assay type: in vivo, Cassia obtusifolia, L.; details: postemergence spray, rated about two-three weeks after treatment
Method in brief: as §1

[4] = test system: IPOHE Morningglory, Ivyleaf; assay: Preemergence herbicidal evaluation, IPOHE; assay type: in vivo, Ipomoea hederacea, (L.) Jacq.; details: preemergence
Method in brief: as §2

ORYSAT Rice, Tebonnet [5] = assay: Postemergence herbicidal evaluation, ORYSAT; assay type: in vivo, Oryza sativa, (L.); details: postemergence spray, rated about two-three weeks after treatment
Method in brief: as §1

ORYSAT Rice, Tebonnet [6] = assay: Preemergence herbicidal evaluation, ORYSAT; assay type: in vivo, Oryza sativa, (L.); details: preemergence
Method in brief: as §2

AMBEL Ragweed, Common [7] = assay: Preemergence herbicidal evaluation, AMBEL; assay type: in vivo, Ambrosia artemisifolia, L.; details: preemergence
Method in brief: as §2

CASOB Sicklepod [8] = assay: Preemergence herbicidal evaluation, CASOB; assay type: in vivo, Cassia obtusifolia, L.; details: preemergence
Method in brief: as §2

SETVI Foxtail, Green [9] = assay: Postemergence herbicidal evaluation, SETVI; assay type: in vivo, Setaria viridis, (L.) Beau; details: postemergence spray, rated about two-three weeks after treatment
Method in brief: as §1

ABUTH Velvetleaf [10] = assay: Postemergence herbicidal evaluation, ABUTH; assay type: in vivo, Abutilon theophrasti, Medic.; details: postemergence spray, rated about two-three weeks after treatment
Method in brief: as §1

[11] = test system: TRZAWR Wheat, Winter, cv Riband; assay: Preemergence herbicidal evaluation, TRZAWR; assay type: in vivo, Triticum aestivum; details: preemergence
Method in brief: as §2

[12] = test system: CHEAL Lambsquarters, Common; assay: Preemergence herbicidal evaluation, CHEAL; assay type: in vivo, Chenopodium album, L.; details: preemergence
Method in brief: as §2

GLXMAW Soybean, Williams [13] = assay: Postemergence herbicidal evaluation, GLXMAW; assay type: in vivo, Glycine max, (L.) Merr. cv Williams; details: postemergence spray, rated about two-three weeks after treatment
Method in brief: as §1

ZEAMX Corn, Field [14] = assay: Preemergence herbicidal evaluation, ZEAMX; assay type: in vivo, Zea mays, L. (Sammel-Bezeichnung); details: preemergence
Method in brief: as §2

GALAP Galium [15] = assay: Preemergence herbicidal evaluation, GALAP; assay type: in vivo, Galium aparine; details: preemergence
Method in brief: as §2

ECHOG Barnyardgrass [16] = assay: Preemergence herbicidal evaluation, ECHOG; assay type: in vivo, Echinochloa crus-galli, (L.) Beau; details: preemergence
Method in brief: as §2

SETVI Foxtail, Green [17] = assay: Preemergence herbicidal evaluation, SETVI; assay type: in vivo, Setaria viridis, (L.) Beau; details: preemergence
Method in brief: as §2

ZEAMX Corn, Field [18] = assay: Postemergence herbicidal evaluation, ZEAMX; assay type: in vivo, Zea mays, L. (Sammel-Bezeichnung); details: postemergence spray, rated about two-three weeks after treatment
Method in brief: as §1

[19] = test system: TRZAWR Wheat, Winter, cv Riband; assay: Postemergence herbicidal evaluation, TRZAWR; assay type: in vivo, Triticum aestivum; details: postemergence spray, rated about two-three weeks after treatment
Method in brief: as §1

AMBEL Ragweed, Common [20] = assay: Postemergence herbicidal evaluation, AMBEL; assay type: in vivo, Ambrosia artemisifolia, L.; details: postemergence spray, rated about two-three weeks after treatment
Method in brief: as §1

[21] = test system: IPOHE Morningglory, Ivyleaf; assay: Postemergence herbicidal evaluation, IPOHE; assay type: in vivo, Ipomoea hederacea, (L.) Jacq.; details: postemergence spray, rated about two-three weeks after treatment
Method in brief: as §1

GALAP Galium [22] = assay: Postemergence herbicidal evaluation, GALAP; assay type: in vivo, Galium aparine; details: postemergence spray, rated about two-three weeks after treatment
Method in brief: as §1

ECHOG Barnyardgrass [23] = assay: Postemergence herbicidal evaluation, ECHOG; assay type: in vivo, Echinochloa crus-galli, (L.) Beau; details: postemergence spray, rated about two-three weeks after treatment
Method in brief: as §1

GLXMAW Soybean, Williams [24] = assay: Preemergence herbicidal evaluation, GLXMAW; assay type: in vivo, Glycine max, (L.) Merr. cv Williams; details: preemergence
Method in brief: as §2

COc1ccc(C)c(-n2nnc3cc(F)c(-n4c(=O)cc(C(F)(F)F)n(C)c4=O)cc32)c1 [Example 22]
Postemergence herbicidal rating CHEAL ([1]; 0.008 kg/ha): 9.0
Postemergence herbicidal rating CHEAL ([1]; 0.016 kg/ha): 9.0
Postemergence herbicidal rating CHEAL ([1]; 0.032 kg/ha): 3.0
Postemergence herbicidal rating CHEAL ([1]; 0.062 kg/ha): 4.0
ABUTH herbicidal rating (ABUTH Velvetleaf [2]; rate 0.016 kg/ha): 0.0
ABUTH herbicidal rating (ABUTH Velvetleaf [2]; rate 0.032 kg/ha): 9.0
ABUTH herbicidal rating (ABUTH Velvetleaf [2]; rate 0.062 kg/ha): 9.0
ABUTH herbicidal rating (ABUTH Velvetleaf [2]; rate 0.125 kg/ha): 7.0
Postemergence herbicidal rating CASOB (CASOB Sicklepod [3]; 0.008 kg/ha): 0.0
Postemergence herbicidal rating CASOB (CASOB Sicklepod [3]; 0.016 kg/ha): 0.0
Postemergence herbicidal rating CASOB (CASOB Sicklepod [3]; 0.032 kg/ha): 0.0
Postemergence herbicidal rating CASOB (CASOB Sicklepod [3]; 0.062 kg/ha): 0.0
IPOHE herbicidal rating ([4]; rate 0.016 kg/ha): 0.0
IPOHE herbicidal rating ([4]; rate 0.032 kg/ha): 0.0
IPOHE herbicidal rating ([4]; rate 0.062 kg/ha): 0.0
IPOHE herbicidal rating ([4]; rate 0.125 kg/ha): 0.0
Postemergence herbicidal rating ORYSAT (ORYSAT Rice, Tebonnet [5]; 0.008 kg/ha): 2.0
Postemergence herbicidal rating ORYSAT (ORYSAT Rice, Tebonnet [5]; 0.016 kg/ha): 2.5
Postemergence herbicidal rating ORYSAT (ORYSAT Rice, Tebonnet [5]; 0.032 kg/ha): 3.0
Postemergence herbicidal rating ORYSAT (ORYSAT Rice, Tebonnet [5]; 0.062 kg/ha): 3.0
ORYSAT herbicidal rating (ORYSAT Rice, Tebonnet [6]; rate 0.016 kg/ha): 0.0
ORYSAT herbicidal rating (ORYSAT Rice, Tebonnet [6]; rate 0.032 kg/ha): 0.0
ORYSAT herbicidal rating (ORYSAT Rice, Tebonnet [6]; rate 0.062 kg/ha): 0.0
ORYSAT herbicidal rating (ORYSAT Rice, Tebonnet [6]; rate 0.125 kg/ha): 0.0
AMBEL herbicidal rating (AMBEL Ragweed, Common [7]; rate 0.016 kg/ha): 0.0
AMBEL herbicidal rating (AMBEL Ragweed, Common [7]; rate 0.032 kg/ha): 0.0
AMBEL herbicidal rating (AMBEL Ragweed, Common [7]; rate 0.062 kg/ha): 0.0
AMBEL herbicidal rating (AMBEL Ragweed, Common [7]; rate 0.125 kg/ha): 0.0
CASOB herbicidal rating (CASOB Sicklepod [8]; rate 0.016 kg/ha): 0.0
CASOB herbicidal rating (CASOB Sicklepod [8]; rate 0.032 kg/ha): 0.0
CASOB herbicidal rating (CASOB Sicklepod [8]; rate 0.062 kg/ha): 0.0
CASOB herbicidal rating (CASOB Sicklepod [8]; rate 0.125 kg/ha): 0.0
Postemergence herbicidal rating SETVI (SETVI Foxtail, Green [9]; 0.008 kg/ha): 0.0
Postemergence herbicidal rating SETVI (SETVI Foxtail, Green [9]; 0.016 kg/ha): 0.0
Postemergence herbicidal rating SETVI (SETVI Foxtail, Green [9]; 0.032 kg/ha): 0.0
Postemergence herbicidal rating SETVI (SETVI Foxtail, Green [9]; 0.062 kg/ha): 0.0
Postemergence herbicidal rating ABUTH (ABUTH Velvetleaf [10]; 0.008 kg/ha): 9.0
Postemergence herbicidal rating ABUTH (ABUTH Velvetleaf [10]; 0.016 kg/ha): 9.0
Postemergence herbicidal rating ABUTH (ABUTH Velvetleaf [10]; 0.032 kg/ha): 9.0
Postemergence herbicidal rating ABUTH (ABUTH Velvetleaf [10]; 0.062 kg/ha): 9.0
TRZAWR herbicidal rating ([11]; rate 0.016 kg/ha): 0.0
TRZAWR herbicidal rating ([11]; rate 0.032 kg/ha): 1.0
TRZAWR herbicidal rating ([11]; rate 0.062 kg/ha): 2.0
TRZAWR herbicidal rating ([11]; rate 0.125 kg/ha): 4.0
CHEAL herbicidal rating ([12]; rate 0.016 kg/ha): 9.0
CHEAL herbicidal rating ([12]; rate 0.032 kg/ha): 9.0
CHEAL herbicidal rating ([12]; rate 0.062 kg/ha): 9.0
CHEAL herbicidal rating ([12]; rate 0.125 kg/ha): 9.0
Postemergence herbicidal rating GLXMAW (GLXMAW Soybean, Williams [13]; 0.008 kg/ha): 4.0
Postemergence herbicidal rating GLXMAW (GLXMAW Soybean, Williams [13]; 0.016 kg/ha): 4.5
Postemergence herbicidal rating GLXMAW (GLXMAW Soybean, Williams [13]; 0.032 kg/ha): 4.0
Postemergence herbicidal rating GLXMAW (GLXMAW Soybean, Williams [13]; 0.062 kg/ha): 5.0
ZEAMX herbicidal rating (ZEAMX Corn, Field [14]; rate 0.016 kg/ha): 0.0
ZEAMX herbicidal rating (ZEAMX Corn, Field [14]; rate 0.032 kg/ha): 2.0
ZEAMX herbicidal rating (ZEAMX Corn, Field [14]; rate 0.062 kg/ha): 4.0
ZEAMX herbicidal rating (ZEAMX Corn, Field [14]; rate 0.125 kg/ha): 6.0
GALAP herbicidal rating (GALAP Galium [15]; rate 0.016 kg/ha): 0.0
GALAP herbicidal rating (GALAP Galium [15]; rate 0.032 kg/ha): 0.0
GALAP herbicidal rating (GALAP Galium [15]; rate 0.062 kg/ha): 0.0
GALAP herbicidal rating (GALAP Galium [15]; rate 0.125 kg/ha): 0.0
ECHCG herbicidal rating (ECHOG Barnyardgrass [16]; rate 0.016 kg/ha): 0.0
ECHCG herbicidal rating (ECHOG Barnyardgrass [16]; rate 0.032 kg/ha): 0.0
ECHCG herbicidal rating (ECHOG Barnyardgrass [16]; rate 0.062 kg/ha): 2.0
ECHCG herbicidal rating (ECHOG Barnyardgrass [16]; rate 0.125 kg/ha): 7.0
SETVI herbicidal rating (SETVI Foxtail, Green [17]; rate 0.016 kg/ha): 0.0
SETVI herbicidal rating (SETVI Foxtail, Green [17]; rate 0.032 kg/ha): 2.0
SETVI herbicidal rating (SETVI Foxtail, Green [17]; rate 0.062 kg/ha): 7.0
SETVI herbicidal rating (SETVI Foxtail, Green [17]; rate 0.125 kg/ha): 9.0
Postemergence herbicidal rating ZEAMX (ZEAMX Corn, Field [18]; 0.008 kg/ha): 4.5
Postemergence herbicidal rating ZEAMX (ZEAMX Corn, Field [18]; 0.016 kg/ha): 4.5
Postemergence herbicidal rating ZEAMX (ZEAMX Corn, Field [18]; 0.032 kg/ha): 4.0
Postemergence herbicidal rating ZEAMX (ZEAMX Corn, Field [18]; 0.062 kg/ha): 4.5
Postemergence herbicidal rating TRZAWR ([19]; 0.008 kg/ha): 3.0
Postemergence herbicidal rating TRZAWR ([19]; 0.016 kg/ha): 3.5
Postemergence herbicidal rating TRZAWR ([19]; 0.032 kg/ha): 4.0
Postemergence herbicidal rating TRZAWR ([19]; 0.062 kg/ha): 4.5
Postemergence herbicidal rating AMBEL (AMBEL Ragweed, Common [20]; 0.008 kg/ha): 0.0
Postemergence herbicidal rating AMBEL (AMBEL Ragweed, Common [20]; 0.016 kg/ha): 0.0
Postemergence herbicidal rating AMBEL (AMBEL Ragweed, Common [20]; 0.032 kg/ha): 2.0
Postemergence herbicidal rating AMBEL (AMBEL Ragweed, Common [20]; 0.062 kg/ha): 3.0
Postemergence herbicidal rating IPOHE ([21]; 0.008 kg/ha): 2.0
Postemergence herbicidal rating IPOHE ([21]; 0.016 kg/ha): 2.0
Postemergence herbicidal rating IPOHE ([21]; 0.032 kg/ha): 9.0
Postemergence herbicidal rating IPOHE ([21]; 0.062 kg/ha): 2.0
Postemergence herbicidal rating GALAP (GALAP Galium [22]; 0.008 kg/ha): 0.0
Postemergence herbicidal rating GALAP (GALAP Galium [22]; 0.016 kg/ha): 0.0
Postemergence herbicidal rating GALAP (GALAP Galium [22]; 0.032 kg/ha): 3.0
Postemergence herbicidal rating GALAP (GALAP Galium [22]; 0.062 kg/ha): 5.0
Postemergence herbicidal rating ECHCG (ECHOG Barnyardgrass [23]; 0.008 kg/ha): 0.0
Postemergence herbicidal rating ECHCG (ECHOG Barnyardgrass [23]; 0.016 kg/ha): 0.0
Postemergence herbicidal rating ECHCG (ECHOG Barnyardgrass [23]; 0.032 kg/ha): 0.0
Postemergence herbicidal rating ECHCG (ECHOG Barnyardgrass [23]; 0.062 kg/ha): 0.0
GLXMAW herbicidal rating (GLXMAW Soybean, Williams [24]; rate 0.016 kg/ha): 0.0
GLXMAW herbicidal rating (GLXMAW Soybean, Williams [24]; rate 0.032 kg/ha): 0.0
GLXMAW herbicidal rating (GLXMAW Soybean, Williams [24]; rate 0.062 kg/ha): 0.0
GLXMAW herbicidal rating (GLXMAW Soybean, Williams [24]; rate 0.125 kg/ha): 0.0

Source: patent US20020111274A1, “1-alkyl-3-[1-(substituted phenyl) benzotriazol-6-yl] uracils” (BASF Aktiengesellschaft, priority 2000, published 2002)
